Assay results as given in patent US20120196899A1, “METHODS AND PRODUCTS FOR TREATING INFLAMMATION” (Rock Creek Pharmaceuticals, Inc., priority 2010, published 2012).
Read-outs that look alike come from different tables or passages of the source.

Test: Plasma toxicokinetics after single i.v. bolus
Type: in vivo, Sprague-Dawley rats
Conditions: for concentration at 0.5 h / concentration at 1 h / concentration at 2 h / concentration at 4 h / concentration at 6 h / concentration at 8 h / AUC(0-inf) / MRT / Vd / half-life: Sprague-Dawley, rat, plasma; for concentration at 0.5 h / concentration at 1 h / concentration at 2 h / concentration at 4 h / concentration at 6 h / concentration at 8 h: intravenous, read-out: Avg. Conc. rat plasma; for AUC(0-inf) / MRT / Vd / half-life: iv; for half-life: read-out: t1/2 (converted)
Procedure: Six rats (3 males and 3 females) were dosed per dose group. […] Plasma and brain homogenates were stored at −80° C. until analysis.
An additional 48 rats (24 males and 24 females) received a single intravenous dose via the tail vein at the same doses as mentioned above. At 30 and 360 minutes post administration, 6 rats (3 males and 3 females) per dose group, per time point were euthanized, bled via cardiac puncture, and perfused, and brains were collected. The brains were homogenized. Blood was spun, and plasma was collected. Plasma and brain homogenate were stored at −80° C.
Four aliquots of each dose level formulation were collected and stored at −80° C. The test compound, corresponding dose level, number of animals, and sample collection times for Phase I of the study are shown in Table 3. The test compound, corresponding dose level, number of animals, and sample collection times for Phase II of the study are shown in Table 4. The physical signs of each animal were monitored following administration of the test compound.
The animals were weighed prior to dosing and received a single i.v. dose of either test compound at a volume of 5 mL/kg. Blood was collected via the venus plexus (retro-orbital) into tubes containing (K2) EDTA. No more than 0.5 mL was collected per time point. […] The brain was removed, weighed, homogenized in sterile 0.9% saline at a volume equal to its weight, and stored at −80° C.
Plasma was separated according to the instructions for MICROTAINER® brand collection tubes (3 minutes, 2000×g). Plasma was decanted into microfuge tubes and stored at −80° C. Remaining test compound was stored at −80° C.
The signal was optimized for each compound by electrospray ionization (ESI) positive or negative ionization mode. A single ion mode (SIM) scan was used to optimize the Fragmentor for the precursor ion and a product ion analysis was used to identify the best fragment for analysis and to optimize the collision energy. The fragment which gave the most sensitive and specific signal was chosen.
Sample preparation. […] The amount of the test agent in the supernatant was determined by liquid chromatography tandem mass spectrometry (LC/MS/MS).
Analysis. Samples were analyzed by LC/MS/MS using an Agilent 6410 mass spectrometer coupled with an Agilent 1200 high pressure liquid chromatography (HPLC) and a CTC PAL chilled autosampler, all controlled by MassHunter software (Agilent). After separation on a hydrophilic interaction liquid chromatography (HILIC) HPLC column (Sepax) using an acetonitrile-ammonium acetate/acetic acid gradient system, peaks were analyzed by mass spectrometry (MS) using ESI ionization in multiple reaction monitoring (MRM) mode. MassHunter software was used to calculate the concentration of the test compounds in samples from the peak area using the appropriate calibration curves.
Calibration samples. Calibration curves were determined for both rat plasma and brain homogenate. Calibration samples were prepared by diluting a 50× stock solution of the test compound in PBS with blank matrix to the appropriate concentration and these samples were prepared as described above in the sample preparation.

[1] = female, 0.1 mg/kg, Anatabine 0.1 mg/kg, female
[2] = female, 0.75 mg/kg, Anatabine 0.75 mg/kg, female
[3] = female, 1 mg/kg, Anatabine 1.0 mg/kg, female
[4] = male, 0.1 mg/kg, Anatabine 0.1 mg/kg, male
[5] = male, 0.75 mg/kg, Anatabine 0.75 mg/kg, male
[6] = male, 1 mg/kg, Anatabine 1.0 mg/kg, male

Which concentration at 0.5 h (female, 0.1 mg/kg, Anatabine 0.1 mg/kg, female, 0.5 hr (2nd 0.5 hr line)) does the source give for `C1=CCC(c2cccnc2)NC1` (racemic) [Anatabine, 1,2,3,6-tetrahydro-[2,3′]bipyridinyl] here?
The concentration at 0.5 h was 31.7 ng/mL.

And the concentration at 1 h [1]?
The concentration at 1 h was 11 ng/mL.

And the concentration at 2 h [1]?
Its concentration at 2 h is 6.7 ng/mL.

And the concentration at 4 h [1]?
Its concentration at 4 h is 4 ng/mL.

What about the concentration at 6 h (female, 0.1 mg/kg, Anatabine 0.1 mg/kg, female, 6 hr (1st 6 hr line, N=3)) of the same compound?
The concentration at 6 h was 3.7 ng/mL.

And the concentration at 6 h (female, 0.1 mg/kg, Anatabine 0.1 mg/kg, female, 6 hr (2nd 6 hr line, N=1))?
The concentration at 6 h was 3 ng/mL.

And the concentration at 0.5 h (female, 0.75 mg/kg, Anatabine 0.75 mg/kg, female, 0.5 hr (1st 0.5 hr line))?
The concentration at 0.5 h was 190 ng/mL.

What about the concentration at 0.5 h (female, 0.75 mg/kg, Anatabine 0.75 mg/kg, female, 0.5 hr (2nd 0.5 hr line)) of the same compound?
The concentration at 0.5 h was 354 ng/mL.

What about the concentration at 1 h [2] of the same compound?
The concentration at 1 h was 173 ng/mL.

And the concentration at 2 h [2]?
The concentration at 2 h was 99.7 ng/mL.

And the concentration at 4 h [2]?
The concentration at 4 h was 45.3 ng/mL.

What about the concentration at 6 h (female, 0.75 mg/kg, Anatabine 0.75 mg/kg, female, 6 hr (1st 6 hr line)) of the same compound?
Its concentration at 6 h is 18.3 ng/mL.

What about the concentration at 6 h (female, 0.75 mg/kg, Anatabine 0.75 mg/kg, female, 6 hr (2nd 6 hr line)) of the same compound?
Its concentration at 6 h is 23 ng/mL.

And the concentration at 8 h [2]?
Its concentration at 8 h is 11 ng/mL.

And the concentration at 0.5 h (female, 1 mg/kg, Anatabine 1.0 mg/kg, female, 0.5 hr (1st 0.5 hr line))?
Its concentration at 0.5 h is 237 ng/mL.

And the concentration at 0.5 h (female, 1 mg/kg, Anatabine 1.0 mg/kg, female, 0.5 hr (2nd 0.5 hr line))?
The concentration at 0.5 h was 368 ng/mL.

What about the concentration at 1 h [3] of the same compound?
Its concentration at 1 h is 229 ng/mL.

And the concentration at 2 h [3]?
The concentration at 2 h was 164 ng/mL.

And the concentration at 4 h [3]?
The concentration at 4 h was 60.7 ng/mL.

And the concentration at 6 h (female, 1 mg/kg, Anatabine 1.0 mg/kg, female, 6 hr (1st 6 hr line))?
The concentration at 6 h was 29.3 ng/mL.

And the concentration at 6 h (female, 1 mg/kg, Anatabine 1.0 mg/kg, female, 6 hr (2nd 6 hr line))?
The concentration at 6 h was 23 ng/mL.

And the concentration at 8 h [3]?
The concentration at 8 h was 17.7 ng/mL.

What about the AUC(0-inf) (female, 0.1 mg/kg) of the same compound?
Its AUC(0-inf) is 37.9 ± 15.9 ng·h/mL.

What about the MRT (female, 0.1 mg/kg) of the same compound?
Its MRT is 2.55 ± 0.93 h.

What about the Vd (female, 0.1 mg/kg) of the same compound?
Its Vd is 6.52 ± 0.66 L/kg.

And the AUC(0-inf) (female, 0.75 mg/kg)?
Its AUC(0-inf) is 544 ± 62.7 ng·h/mL.

And the Vd (female, 0.75 mg/kg)?
Its Vd is 3.19 ± 0.15 L/kg.

And the half-life (female, 0.75 mg/kg, anatabine 0.75 mg/kg single i.v., female rats)?
Its half-life is 1.73 ± 0.03 h.

And the AUC(0-inf) (female, 1 mg/kg)?
The AUC(0-inf) was 789 ng·h/mL.

And the MRT (female, 1 mg/kg)?
Its MRT is 2.8 h.

What about the Vd (female, 1 mg/kg) of the same compound?
Its Vd is 3.16 ± 0.15 L/kg.

What about the half-life (female, 1 mg/kg, anatabine 1.0 mg/kg single i.v., female rats) of the same compound?
Its half-life is 1.84 h.

What about the concentration at 0.5 h (male, 0.1 mg/kg, Anatabine 0.1 mg/kg, male, 0.5 hr (1st 0.5 hr line)) of the same compound?
Its concentration at 0.5 h is 15.3 ng/mL.

And the concentration at 0.5 h (male, 0.1 mg/kg, Anatabine 0.1 mg/kg, male, 0.5 hr (2nd 0.5 hr line))?
The concentration at 0.5 h was 31.7 ng/mL.

And the concentration at 1 h [4]?
Its concentration at 1 h is 12.3 ng/mL.

What about the concentration at 2 h [4] of the same compound?
Its concentration at 2 h is 6.3 ng/mL.

What about the concentration at 4 h [4] of the same compound?
Its concentration at 4 h is 3 ng/mL.

What about the concentration at 6 h (male, 0.1 mg/kg, Anatabine 0.1 mg/kg, male, 6 hr (2nd 6 hr line)) of the same compound?
Its concentration at 6 h is 5 ng/mL.

What about the concentration at 0.5 h (male, 0.75 mg/kg, Anatabine 0.75 mg/kg, male, 0.5 hr (1st 0.5 hr line)) of the same compound?
Its concentration at 0.5 h is 181 ng/mL.

And the concentration at 0.5 h (male, 0.75 mg/kg, Anatabine 0.75 mg/kg, male, 0.5 hr (2nd 0.5 hr line))?
Its concentration at 0.5 h is 302 ng/mL.

And the concentration at 1 h [5]?
Its concentration at 1 h is 152 ng/mL.

And the concentration at 2 h [5]?
The concentration at 2 h was 83.7 ng/mL.

And the concentration at 4 h [5]?
Its concentration at 4 h is 34.7 ng/mL.

And the concentration at 6 h (male, 0.75 mg/kg, Anatabine 0.75 mg/kg, male, 6 hr (1st 6 hr line))?
Its concentration at 6 h is 14 ng/mL.

What about the concentration at 6 h (male, 0.75 mg/kg, Anatabine 0.75 mg/kg, male, 6 hr (2nd 6 hr line)) of the same compound?
Its concentration at 6 h is 22 ng/mL.

What about the concentration at 8 h [5] of the same compound?
Its concentration at 8 h is 9 ng/mL.

What about the concentration at 0.5 h (male, 1 mg/kg, Anatabine 1.0 mg/kg, male, 0.5 hr (1st 0.5 hr line)) of the same compound?
The concentration at 0.5 h was 272 ng/mL.

What about the concentration at 0.5 h (male, 1 mg/kg, Anatabine 1.0 mg/kg, male, 0.5 hr (2nd 0.5 hr line)) of the same compound?
The concentration at 0.5 h was 399 ng/mL.

What about the concentration at 1 h [6] of the same compound?
Its concentration at 1 h is 234 ng/mL.

And the concentration at 2 h [6]?
Its concentration at 2 h is 123 ng/mL.

And the concentration at 4 h [6]?
Its concentration at 4 h is 42.3 ng/mL.

What about the concentration at 6 h (male, 1 mg/kg, Anatabine 1.0 mg/kg, male, 6 hr (1st 6 hr line)) of the same compound?
The concentration at 6 h was 18 ng/mL.

What about the concentration at 6 h (male, 1 mg/kg, Anatabine 1.0 mg/kg, male, 6 hr (2nd 6 hr line)) of the same compound?
Its concentration at 6 h is 27 ng/mL.

And the concentration at 8 h [6]?
The concentration at 8 h was 7.7 ng/mL.

What about the AUC(0-inf) (male, 0.1 mg/kg) of the same compound?
Its AUC(0-inf) is 32 ± 7.7 ng·h/mL.

And the MRT (male, 0.1 mg/kg)?
Its MRT is 2.03 ± 0.41 h.

And the Vd (male, 0.1 mg/kg)?
Its Vd is 5.29 ± 0.49 L/kg.

What about the half-life (male, 0.1 mg/kg, anatabine 0.1 mg/kg single i.v., male rats) of the same compound?
The half-life was 1.25 ± 0.32 h.

And the AUC(0-inf) (male, 0.75 mg/kg)?
Its AUC(0-inf) is 464 ± 36.2 ng·h/mL.

And the MRT (male, 0.75 mg/kg)?
Its MRT is 2.5 ± 0.19 h.

What about the Vd (male, 0.75 mg/kg) of the same compound?
Its Vd is 3.48 ± 0.18 L/kg.

What about the AUC(0-inf) (male, 1 mg/kg) of the same compound?
Its AUC(0-inf) is 631 ng·h/mL.

What about the MRT (male, 1 mg/kg) of the same compound?
Its MRT is 2.18 h.

What about the Vd (male, 1 mg/kg) of the same compound?
Its Vd is 3.01 ± 0.12 L/kg.

And the half-life (male, 1 mg/kg, anatabine 1.0 mg/kg single i.v., male rats)?
Its half-life is 1.44 h.

And the “plasma concentration between approximately 6 and 8 hours” value (nicotine 0.4 mg/kg, anatabine 0.1 mg/kg single i.v., rats)?
The value was “below the limits of quantitation”.
